In patent US11382898B2, “BAX activators and uses thereof in cancer therapy” (Albert Einstein College of Medicine, priority 2017, dated 2022):
pEC50, pIC50: −log10 of the molar value. Values belong to the compound of their own block, whether it stands above or below them. Positions of bridges follow the written chain, without caps; N, C: chain ends. Non-standard residues stand in square brackets, D forms with d. Residues, ends and D or L forms follow the SMILES beside them. S5 = C=CCCC[C@](C)(N)C(=O)O

Key:
OCI-AML3 leukemia cells = test: Synergistic cytotoxicity with BCL-2 inhibitors in OCI-AML3 leukemia cells; type: cell-based, human; conditions: for synergy with ABT-199 (venetoclax) / synergy with ABT-263 (navitoclax): non-cytotoxic doses, 24 h; for pIC50: Homo sapiens, OCI-AML-3, 24 h, 24 h treatment
Description: Viability assays were performed in at least triplicate and the data normalized to vehicle-treated control wells. IC50 values were determined by nonlinear regression analysis using Prism software (Graphpad).

BAX [1] = molecular target: T1, BAX (Homo sapiens, UniProt Q07812); test: Competitive fluorescence polarization assay, FITC-BIM SAHBA2 from the BAX trigger site; type: binding; conditions: for pIC50: FITC-BIM SAHBA2 50 nM, BAX 500 nM, read-out: IC50, competition of FITC-BIM SAHBA2 from BAX
T1 construct: with serial dilutions of full-length BAX, BCL-XLΔC, MCL-1ΔNΔC, BFL-1/A1ΔC; made in house; host or cells: Escherichia coli
T1 sequence (Q07812 whole entry): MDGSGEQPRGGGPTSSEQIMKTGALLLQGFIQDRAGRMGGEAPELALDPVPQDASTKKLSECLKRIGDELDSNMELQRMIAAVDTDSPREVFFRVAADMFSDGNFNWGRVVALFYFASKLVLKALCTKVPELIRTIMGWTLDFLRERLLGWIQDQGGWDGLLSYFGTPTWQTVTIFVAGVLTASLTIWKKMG
Description: (§1) Fluorescence polarization assays (FPA) were performed as previously described (Gavathiotis et al., 2012). Firstly, direct binding isotherms were generated by incubating FITC-BIM SAHBA2 (50 nM) with serial dilutions of full-length BAX, BCL-XLΔC, MCL-1ΔNΔC, BFL-1/A1ΔC and fluorescence polarization was measured at 20 minutes on a F200 PRO microplate reader (TECAN). Subsequently, in competition assays, a serial dilution of small molecule or acetylated BIM SAHBA2 (Ac-BIM SAHB) was combined with FITC-BIM SAHBA2 (50 nM), followed by the addition of recombinant protein at ˜EC75 concentration, as determined by the direct binding assay (BAX: 500 nM; BCL-XLΔC, MCL-1ΔNΔC, BFL-1/A1ΔC: 200 nM).
(§2) A competitive fluorescence polarization assay that evaluates the capacity of compounds to compete a fluorescein-labeled stapled peptide of the BIM BH3 helix, FITC-BIM SAHBA2, from the BAX trigger site, was used to determine the binding potency (Gavathiotis et al., 2008; Gavathiotis et al., 2012).

BFL-1/A1 = test: Competitive fluorescence polarization assay, FITC-BIM SAHBA2 bound to BFL-1/A1; type: binding, Human; conditions: BTSA1 at 50 μM
Description: as §1, §2

MCL-1 = test: Competitive fluorescence polarization assay, FITC-BIM SAHBA2 bound to MCL-1; type: binding, Human; conditions: BTSA1 at 50 μM
Description: as §1, §2

BCL-XL = molecular target: T2, BCL-XL (Homo sapiens, UniProt Q07817); test: Competitive fluorescence polarization assay, FITC-BIM SAHBA2 bound to BCL-XL; type: binding; conditions: BTSA1 at 50 μM
T2 construct: BCL-XLΔC, MCL-1ΔNΔC, BFL-1/A1ΔC: 200 nM; made in house; host or cells: Escherichia coli
T2 sequence (Q07817 1-212 limits assumed): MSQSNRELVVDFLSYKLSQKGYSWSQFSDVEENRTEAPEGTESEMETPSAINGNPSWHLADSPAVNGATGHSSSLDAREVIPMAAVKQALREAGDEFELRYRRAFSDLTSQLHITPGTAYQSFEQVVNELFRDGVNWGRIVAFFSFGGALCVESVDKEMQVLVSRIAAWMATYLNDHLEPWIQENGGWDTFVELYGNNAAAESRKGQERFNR
Description: as §1, §2

[2] = test system: anti-apoptotic BCL-2 family proteins (BCL-2, BCL-XL, MCL-1); test: Pull down assay with biotinylated BTSA1, anti-apoptotic BCL-2 family proteins; type: binding, human
Description: OCI-AML3, MEFs and HPB-ALL cytosolic and mitochondrial lysates were generated by Dounce Homogenization. Cells were lysed by Dounce homogenizer in lysis buffer (LB) containing 10 mM Tris, pH 7.5, 1 mM EGTA, 200 mM sucrose plus Complete Protease Inhibitors. The cell lysates were centrifuged at 700×g for 10 min to remove unbroken cells and nuclei. The supernatants were centrifuged at 12000× g for 10 min at 4° C. and the resulting pellet was collected as the mitochondrial fraction and supernatant as the cytosolic fraction. The mitochondrial fraction was resuspended in LB+1% CHAPS to solubilize proteins. […] Biotin capture was achieved by incubation with high capacity streptavidin agarose (50 μL 50% slurry/reaction—Pierce) for 1 hour at room temperature. The streptavidin beads were washed (3×) at room temperature with 1×PBS. Cellular BAX bound to the biotinylated-BTSA1 was eluted by boiling for 20 minutes in LDS buffer and then subjected to BAX (2772S, Cell Signaling), BCL-2 (BD Biosciences Cat. 610539), BCL-XL (Cell Signaling Cat. 2764) and MCL-1 (Cell Signaling Cat. 4572) western blot analysis.

BAX [3] = molecular target: T1, BAX; test: Direct fluorescence polarization binding of fluorescein-labeled BTSA1 to BAX; conditions: fluorescein-labeled compound
THP-1 and OCI-AML3 cells = test: Viability assay of AML cells treated with venetoclax or BTSA1 alone or in combination; type: cell-based, human; conditions: BTSA1 at ~EC10 dose, 24 hrs
Source text: Moreover, the synergistic effect of these two drugs is observed within hours, consistent with their kinetics of mitochondrial apoptosis activation.

Compound: COc1ccc(C2=NN(c3nc(-c4ccccc4)cs3)C(=O)/C2=N\Nc2nccs2)cc1 [GAV2-010]
synergy with ABT-199 (venetoclax) (OCI-AML3 leukemia cells): significant synergistic cytotoxicity

Compound: Cc1nc(N/N=C2\C(=O)N(c3nc(-c4ccccc4)cs3)N=C2c2ccccc2)sc1C [GAV2-006]
synergy with ABT-199 (venetoclax) (OCI-AML3 leukemia cells): significant synergistic cytotoxicity
synergy with ABT-263 (navitoclax) (OCI-AML3 leukemia cells): significant synergistic cytotoxicity

Compound: CC[C@H](C)[C@H](NC(=O)[C@H](Cc1c[nH]c2ccccc12)NC(=O)[C@@H](NC(=O)[C@H](CCC(=O)O)NC(C)=O)[C@@H](C)CC)C(=O)N[C@@H](C)C(=O)N[C@@H](CCC(N)=O)C(=O)N[C@@H](CCC(=O)O)C(=O)N[C@@H](CC(C)C)C(=O)N[C@@H](CCCNC(=N)N)C(=O)N[C@@]1(C)CCCC=CCCC[C@@](C)(C(=O)N[C@@H](Cc2ccccc2)C(=O)N[C@@H](CC(N)=O)C(=O)N[C@@H](C)C(=O)N[C@@H](Cc2ccc(O)cc2)C(=O)N[C@@H](Cc2ccc(O)cc2)C(=O)N[C@@H](C)C(N)=O)NC(=O)[C@H](CC(=O)O)NC(=O)CNC(=O)[C@H]([C@@H](C)CC)NC1=O [BIM SAHBA2] (Ac-EIWIAQELR[S5]IGD[S5]FNAYYA-NH2; staple 10-14)
capacity to compete FITC-BIM SAHBA2 from BFL-1/A1 (BFL-1/A1): effectively competed
capacity to compete FITC-BIM SAHBA2 from MCL-1 (MCL-1): effectively competed
capacity to compete FITC-BIM SAHBA2 from BCL-XL (BCL-XL): effectively competed
pIC50 (BAX [1]): 6.55

Compound: O=C1/C(=N\Nc2nccs2)C(c2ccccc2)=NN1c1nc(-c2ccc(F)cc2)cs1 [GAV2-008]
synergy with ABT-199 (venetoclax) (OCI-AML3 leukemia cells): significant synergistic cytotoxicity
synergy with ABT-263 (navitoclax) (OCI-AML3 leukemia cells): significant synergistic cytotoxicity

Compound: O=C(NCCCOCCOCCOCCCNC(=S)Nc1ccc2c(c1)C(=O)OC21c2ccc(O)cc2Oc2cc(O)ccc21)c1ccc(-c2csc(N3N=C(c4ccccc4)C(=NNc4nccs4)C3=O)n2)cc1 [fluorescein-labeled BTSA1, N-(1-((3′,6′-dihydroxy-3-oxo-3H-spiro[isobenzofuran-1,9′-xanthen]-5-yl)amino)-1-thioxo-6,9,12-trioxa-2-azapentadecan-15-yl)-4-(2-(5-oxo-3-phenyl-4-(2-(thiazol-2-yl)hydrazineylidene)-4,5-dihydro-1H-pyrazol-1-yl)thiazol-4-yl)-benzamide]
pEC50 (BAX [3]): 6.84

Compound: CC1(C)CCC(CN2CCN(c3ccc(C(=O)NS(=O)(=O)c4ccc(NCC5CCOCC5)c([N+](=O)[O-])c4)c(Oc4cnc5[nH]ccc5c4)c3)CC2)=C(c2ccc(Cl)cc2)C1 [ABT-199, 4-(4-{[2-(4-Chlorophenyl)-4,4-dimethyl-1-cyclohexen-1-yl]methyl}-1-piperazinyl)-N-({3-nitro-4-[(tetrahydro-2H-pyran-4-ylmethyl)amino]phenyl}sulfonyl)-2-(1H-pyrrolo[2,3-b]pyridin-5-yloxy)benzamide]
EC50 of venetoclax in combination with BTSA1 (THP-1 and OCI-AML3 cells): low nM concentration
pIC50 (OCI-AML3 leukemia cells; BAX activator concentration 0.625 μM): 5.41
pIC50 (OCI-AML3 leukemia cells; BAX activator concentration 1.25 μM): 5.32
pIC50 (OCI-AML3 leukemia cells; BAX activator concentration […]): 5.44

Continued, in another order:

reduction in binding capacity to BAX relative to BTSA1 (BAX [1]): ~10 fold
pIC50 (BAX [1]): 5.43
Compound: CC1=NN(c2nc(-c3ccccc3)cs2)C(=O)C1=NNc1nccs1 [BTSA2]

reduction in binding capacity to BAX relative to BTSA1 (BAX [1]): ten-fold
pIC50 (BAX [1]): 5.70
Compound: O=C(CCCC[C@H]1SCC2NC(=O)NC21)NCCCOCCOCCOCCCNC(=O)c1ccc(-c2csc(N3N=C(c4ccccc4)C(=NNc4nccs4)C3=O)n2)cc1 (stereo partly drawn) [biotinylated BTSA1, N-(15-oxo-19-((4R)-2-oxohexahydro-1H-thieno[3,4-d]imidazol-4-yl)-4,7,10-trioxa-14-azanonadecyl)-4-(2-(5-oxo-3-phenyl-4-(2-(thiazol-2-yl)hydrazono)-4,5-dihydro-1Hpyrazol-1-yl)thiazol-4-yl)benzamide]
pull down of anti-apoptotic BCL-2 family proteins [2]: failed to pull down
